Data published in PMC7924852, “The Emericellipsins A–E from an Alkalophilic Fungus Emericellopsis alkalina Show Potent Activity against Multidrug-Resistant Pathogenic Fungi” (Journal of Fungi, 2021).
Converted amounts (≈) assume the structure as drawn.

Tests used:
[1] = tested on: HCT-116 (colon cancer cell line); assay: MTT cytotoxicity assay; assay type: cell-based; conditions: Homo sapiens, 72 h, three experiments, each in triplicate
Experimental: (§1) Experiments for determining the cytotoxic activity of the compound in MTT assays were performed as previously described. The following tumor cell lines were used for this study: HCT-116 (colon cancer cell line), B16 (mouse melanoma cell line), K-562 (leukemia cell line), MDA-MB-231 (breast cancer line), and MCF-7 (breast cancer cell). Human postnatal fibroblasts were used as a normal cell line, and doxorubicin was used as a positive control. The cell lines were cultured in Dulbecco modified Eagle’s medium supplemented with 5% fetal calf serum, 2 mM Lglutamine, 100 U/mL penicillin, and […] streptomycin at 37 °C, 5% CO2 in a humidified atmosphere. Experiments were carried out on cells in the logarithmic phase of growth. The peptide was dissolved in DMSO as a 10 mM stock solution, followed by serial dilutions in water immediately before the experiment. Briefly, cells (5 × 10^3 in […] of culture medium) were plated in a 96-well plate and treated with 0.1% DMSO (blank control) or with […] of the peptide (0.10‒50 μM; each concentration in duplicate) for 72 h. After incubation with peptide, […] of aqueous MTT solution (3-(4,5-dimethylthiazol-2-yl)-2,5-diphenyltetrazolium bromide, 5 mg/mL) were added into each well for 2‒3 h. Formazan was dissolved in DMSO, and the absorbance at 570 nm was measured. The cytotoxicity at a given EmiA concentration was calculated as the percentage of absorbance in wells with peptide-treated cells compared to that of blank control cells (100%). The IC50 (50% growth inhibitory concentration) was defined as the concentration of EmiA that inhibited MTT conversion by 50%. All the experiments were repeated three times, each time in triplicate. EmiA was tested at a range of concentrations, 0.1‒10 μM.

[2] = tested on: HPF (human postnatal fibroblasts, normal cell line); assay: MTT cytotoxicity assay; assay type: cell-based; conditions: Homo sapiens, Fibroblast; HPF normal fibroblasts; MTT, 72 h; three experiments, each in triplicate
Experimental: as §1

[3] = tested on: B16 (mouse melanoma cell line); assay: MTT cytotoxicity assay; assay type: cell-based; conditions: Mus musculus, 72 h, three experiments, each in triplicate
Experimental: as §1

C. tropicalis 156 [4] = assay: Broth microdilution MIC and MFC (CLSI); assay type: cell-based; conditions: Candida tropicalis; C. tropicalis 156 clinical isolate; RPMI 1640 pH 7.0, 35 °C, 24 h; read-out: MIC
C. krusei 1447 [5] = assay: Sensititre YeastOne antifungal susceptibility test; assay type: cell-based; conditions: Sensititre YeastOne; C. krusei 1447
C. glabrata 1402 [6] = assay: Sensititre YeastOne antifungal susceptibility test; assay type: cell-based; conditions: Nakaseomyces glabratus, 1402
C. krusei 1447 [7] = assay: Broth microdilution MIC and MFC (CLSI); assay type: cell-based; conditions: C. krusei 1447; symbol R defined in Table S1
[8] = tested on: clinical yeast isolates (Candida, Cryptococcus); assay: Broth microdilution MIC/MFC, pathogenic multidrug yeast strains; assay type: cell-based; conditions: whole panel of Candida isolates
Cr. laurentii 325m = assay: Sensititre YeastOne antifungal susceptibility test; assay type: cell-based; conditions: Papiliotrema laurentii; Sensititre YeastOne; Cr. laurentii 325m clinical isolate; read-out: MIC
Candida albicans 1402 [9] = assay: Broth microdilution MIC and MFC (CLSI); assay type: cell-based; conditions: Candida albicans 1402 clinical isolate; RPMI 1640 pH 7.0, 35 °C, 24 h; read-out: MIC
Candida albicans 1402 [10] = assay: Sensititre YeastOne antifungal susceptibility test; assay type: cell-based; conditions: Candida albicans, 1402
Aspergillus niger 1133m = assay: Sensititre YeastOne antifungal susceptibility test; assay type: cell-based; conditions: Aspergillus niger, 1133M
C. laurentii 325m = assay: Broth microdilution MIC and MFC (CLSI); assay type: cell-based, Cr. laurentii; conditions: Papiliotrema laurentii; C. laurentii 325m clinical isolate; RPMI 1640 pH 7.0, 35 °C, 24 h; read-out: MIC
[11] = tested on: Cryptococcus neoformans 297; assay: Sensititre YeastOne antifungal susceptibility test; assay type: cell-based; conditions: Sensititre YeastOne; Cryptococcus neoformans 297 clinical isolate; read-out: MIC
C. parapsilosis 571 [12] = assay: Broth microdilution MIC and MFC (CLSI); assay type: cell-based; conditions: Lodderomyces parapsilosis, 571, 24 h, pH 7
[13] = tested on: Cryptococcus neoformans 297; assay: Broth microdilution MIC and MFC (CLSI); assay type: cell-based; conditions: Cryptococcus neoformans 297 clinical isolate; RPMI 1640 pH 7.0, 35 °C, 24 h; read-out: MIC
C. tropicalis 156 [14] = assay: Sensititre YeastOne antifungal susceptibility test; assay type: cell-based; conditions: Candida tropicalis; Sensititre YeastOne; C. tropicalis 156 clinical isolate; read-out: MIC
C. glabrata 1402 [15] = assay: Broth microdilution MIC and MFC (CLSI); assay type: cell-based; conditions: Nakaseomyces glabratus, 1402, 24 h, pH 7
C. parapsilosis 571 [16] = assay: Sensititre YeastOne antifungal susceptibility test; assay type: cell-based; conditions: Lodderomyces parapsilosis, 571
A. fumigatus 390m = assay: Sensititre YeastOne antifungal susceptibility test; assay type: cell-based; conditions: Aspergillus fumigatus, 390M
A. terreus 497 = assay: Sensititre YeastOne antifungal susceptibility test; assay type: cell-based; conditions: Aspergillus terreus, 497

## COc1cccc2c1C(=O)c1c(O)c3c(c(O)c1C2=O)C[C@@](O)(C(=O)CO)C[C@@H]3O[C@H]1C[C@H](N)[C@H](O)[C@H](C)O1 [Doxorubicin]
[1]
  IC50: 0.2 ± 0.03 µM
[2]
  IC50: 0.2 ± 0.03 µM
[3]
  IC50: 0.6 ± 0.07 µM

## OC(Cn1cncn1)(Cn1cncn1)c1ccc(F)cc1F [FZ, Fluconazole]
C. tropicalis 156 [4]
  MIC: 64 µg/mL (≈ 209 µM)
C. krusei 1447 [5]
  MIC (class symbol): R
C. glabrata 1402 [6]
  MIC: > 256 µg/mL
C. krusei 1447 [7]
  MIC (class symbol): R
[8]
  antifungal activity (in words): little or no activity
Cr. laurentii 325m
  MIC: 32 µg/mL (≈ 104 µM)
Candida albicans 1402 [9]
  MIC: 64 µg/mL (≈ 209 µM)
Candida albicans 1402 [10]
  MIC: 256 µg/mL (≈ 836 µM)
Aspergillus niger 1133m
  MIC: > 256 µg/mL
C. laurentii 325m
  MIC: 32 µg/mL (≈ 104 µM)
[11]
  MIC: 16 µg/mL (≈ 52.2 µM)
C. parapsilosis 571 [12]
  MIC: 128 µg/mL (≈ 418 µM)
[13]
  MIC: 16 µg/mL (≈ 52.2 µM)
C. tropicalis 156 [14]
  MIC: 64 µg/mL (≈ 209 µM)
C. glabrata 1402 [15]
  MIC: 128 µg/mL (≈ 418 µM)
C. parapsilosis 571 [16]
  MIC: 128 µg/mL (≈ 418 µM)
A. fumigatus 390m
  MIC: > 256 µg/mL
A. terreus 497
  MIC: > 256 µg/mL
